Measurements: PubChem BioAssay AID248 (DTP/NCI, 2004)
Inconclusive results and toxic doses are left out. No stated cut-off is given here; in the data, active means T/C of 150% or more; inactive means T/C below 125%.

System: L1210 leukemia ip in BDF1 mice, survival T/C
Assay: NCI In Vivo Anticancer Drug Screen. Data for tumor model L1210 Leukemia (intraperitoneal) in B6D2F1 (BDF1) mice
Conditions: endpoint: mean survival time, higher = longer survival
Method in brief: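 Ratio derived from survival: compound-dosed mice over vehicle-dosed mice, all bearing a transplantable tumor.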

[1] = dose: 100.0 mg/kg/injection, schedule: Q01DX009 (ip), vehicle: saline with Tween-80
[2] = dose: 200.0 mg/kg/injection, schedule: Q01DX009 (ip), vehicle: saline with Tween-80
[3] = dose: 100.0 mg/kg/injection, schedule: Q04DX003 (ip), vehicle: saline
[4] = dose: 200.0 mg/kg/injection, schedule: Q04DX003 (ip), vehicle: saline
[5] = dose: 100.0 mg/kg/injection, schedule: Q01DX001 (ip), vehicle: Klucel (hydroxypropylcellulose) (HPC)
[6] = dose: 200.0 mg/kg/injection, schedule: Q01DX001 (ip), vehicle: Klucel (hydroxypropylcellulose) (HPC)
[7] = dose: 400.0 mg/kg/injection, schedule: Q01DX001 (ip), vehicle: Klucel (hydroxypropylcellulose) (HPC)
[8] = dose: 100.0 mg/kg/injection, schedule: Q04DX003 (ip), vehicle: Klucel (hydroxypropylcellulose) (HPC)
[9] = dose: 200.0 mg/kg/injection, schedule: Q04DX003 (ip), vehicle: Klucel (hydroxypropylcellulose) (HPC)
[10] = dose: 400.0 mg/kg/injection, schedule: Q04DX003 (ip), vehicle: Klucel (hydroxypropylcellulose) (HPC)

Measured: T/C

Cc1c[n+]([O-])c(C)cc1N=Nc1ccc(N(C)C)cc1
inactive: dose: 50.0 mg/kg/injection, schedule: Q01DX009 (ip), vehicle: saline with Tween-80 111 % of control | [1] 95 % of control | dose: 100.0 mg/kg/injection, schedule: Q04DX002 (ip), vehicle: saline with Tween-80 89 % of control | [2] 90 % of control | dose: 200.0 mg/kg/injection, schedule: Q04DX002 (ip), vehicle: saline with Tween-80 99 % of control

O=C(OCc1ccccc1)c1ccc(OCc2ccccc2)cc1
inactive: [3] 94 % of control | [4] 100 % of control | dose: 400.0 mg/kg/injection, schedule: Q04DX003 (ip), vehicle: saline 96 % of control

O=C(NC(=O)c1ccc([N+](=O)[O-])cc1)Nc1ccccc1
inactive: dose: 264.0 mg/kg/injection, schedule: Q01DX001 (ip), vehicle: carboxymethylcellulose (CMC) 92 % of control | dose: 400.0 mg/kg/injection, schedule: Q01DX001 (ip), vehicle: carboxymethylcellulose (CMC) 96 % of control | dose: 600.0 mg/kg/injection, schedule: Q01DX001 (ip), vehicle: carboxymethylcellulose (CMC) 88 % of control

C=CCC1(CCCC)C(=O)NC(=O)NC1=O
inactive: dose: 75.0 mg/kg/injection, schedule: Q01DX001 (ip), vehicle: saline 89 % of control | dose: 150.0 mg/kg/injection, schedule: Q01DX001 (ip), vehicle: saline 105 % of control

Cc1ccccc1C1(c2ccccc2C)OC(=O)c2ccccc21
inactive: [1] 93 % of control | [2] 89 % of control | dose: 400.0 mg/kg/injection, schedule: Q01DX009 (ip), vehicle: saline with Tween-80 90 % of control

COc1ccc(NC(=O)CCc2ccccc2)cc1
inactive: dose: 12.5 mg/kg/injection, schedule: Q01DX001 (ip), vehicle: Klucel (hydroxypropylcellulose) (HPC) 98 % of control | dose: 25.0 mg/kg/injection, schedule: Q01DX001 (ip), vehicle: Klucel (hydroxypropylcellulose) (HPC) 88 % of control | dose: 50.0 mg/kg/injection, schedule: Q01DX001 (ip), vehicle: Klucel (hydroxypropylcellulose) (HPC) 93 % of control | [5] 86 % of control | [6] 88 % of control | [7] 91 % of control

CCN(CC)CC(=O)NCC(CC)(CCN1CCCCC1)c1cccc2ccccc12 (centres undefined)
inactive: dose: 50.0 mg/kg/injection, schedule: Q04DX003 (ip), vehicle: saline 92 % of control | dose: 100.0 mg/kg/injection, schedule: Q01DX009 (ip), vehicle: saline 114 % of control | [3] 102 % of control | dose: 200.0 mg/kg/injection, schedule: Q01DX009 (ip), vehicle: saline 102 % of control | [4] 97 % of control

CS(=O)(=O)OC1CCCCC1Sc1ccc(Br)cc1 (centres undefined)
inactive: [5] 103 % of control | [8] 101 % of control | [6] 101 % of control | [9] 101 % of control | [7] 101 % of control | [10] 106 % of control

NC(N)=N/N=C(\C(=N\N=C(N)N)c1ccccc1)c1ccccc1
inactive: dose: 60.0 mg/kg/injection, schedule: Q01DX Z (oral), vehicle: methylcellulose (MC) 98 % of control | dose: 120.0 mg/kg/injection, schedule: Q01DX Z (oral), vehicle: methylcellulose (MC) 96 % of control | dose: 240.0 mg/kg/injection, schedule: Q01DX Z (oral), vehicle: methylcellulose (MC) 94 % of control | dose: 480.0 mg/kg/injection, schedule: Q01DX Z (oral), vehicle: methylcellulose (MC) 91 % of control

COc1cccc2c1C(=O)c1c(O)c3c(c(O)c1C2=O)C[C@@](O)(/C(C)=N\O)C[C@@H]3OC1CC(N)C(O)C(C)O1 (some centres undefined)
inactive: dose: 1.0 mg/kg/injection, schedule: Q04DX003 (ip), vehicle: water 106 % of control | dose: 2.0 mg/kg/injection, schedule: Q04DX003 (ip), vehicle: water 115 % of control | dose: 4.0 mg/kg/injection, schedule: Q04DX003 (ip), vehicle: water 113 % of control

CCCCCCCCCCCCCCCC(=O)Nc1ccc(O)cc1
inactive: dose: 100.0 mg/kg/injection, schedule: Q01DX001 (ip), vehicle: saline 110 % of control | [8] 97 % of control | dose: 200.0 mg/kg/injection, schedule: Q01DX001 (ip), vehicle: saline 110 % of control | [9] 102 % of control | dose: 400.0 mg/kg/injection, schedule: Q01DX001 (ip), vehicle: saline 108 % of control | [10] 95 % of control

CCCCCCCCCCCCC(=O)N(CCCC)CCCC
inactive: dose: 100.0 mg/kg/injection, schedule: Q04DX002 (ip), vehicle: Klucel (hydroxypropylcellulose) (HPC) 92 % of control | dose: 200.0 mg/kg/injection, schedule: Q04DX002 (ip), vehicle: Klucel (hydroxypropylcellulose) (HPC) 96 % of control | dose: 400.0 mg/kg/injection, schedule: Q04DX002 (ip), vehicle: Klucel (hydroxypropylcellulose) (HPC) 103 % of control
